Legend:
[1] = tested on: cells derived from Ku70 knock-out mice; test: Survival experiments with cells derived from Ku70 knock-out mice; assay type: cell-based; details: Ku70 knock-out mouse cells, FIG. 12
[2] = tested on: cells derived from Ku80 knock-out mice; test: Survival experiments with cells derived from Ku80 knock-out mice; assay type: cell-based; details: Ku80 knock-out mouse cells, FIG. 12
[3] = tested on: HeLa cells expressing antisense Ku70; test: Cytotoxicity in stable HeLa cells expressing antisense Ku70 RNA (Tet-Off); assay type: cell-based, human; details: adriamycin 1 μg/ml; expression of Ku70 antisense RNA; FIG. 13
Procedure: Effect of (A) radiation, and (B) adriamycin on different cell types. O=HeLa controls cells; ▪=HeLa cells expressing antisense Ku70; ▴=HeLa cell expressing antisense Ku80.
Stable HeLa cells, containing human Ku70 cDNA or human Ku80 cDNA, in the antisense orientation, under the regulation of the Tet-Off™ expression system (Clonetech), were established. Upon induction of the expression system these cells should produce antisense Ku70 or Ku80 RNA, respectively. Experiments were performed showing (FIG. 13) that expression of either Ku70 or Ku80 antisense RNA increased the cytotoxic effect adriamycin by 3-5 fold at 1 μg/ml and that expression of Ku70 antisense RNA increased the cytotoxic effect of γ-radiation approximately 5 fold (at 6 Gy).

[4] = tested on: HeLa cells expressing antisense Ku80; test: Cytotoxicity in stable HeLa cells expressing antisense Ku80 RNA (Tet-Off); assay type: cell-based, human; details: adriamycin 1 μg/ml; expression of Ku80 antisense RNA; FIG. 13

| Molecule | sensitivity of cells to the agent (survival) [1] | sensitivity of cells to the agent (survival) [2] | increase of the cytotoxic effect of adriamycin [3] | increase of the cytotoxic effect of adriamycin [4] |
| --- | --- | --- | --- | --- |
| bleomycin | very sensitive | very sensitive |  |  |
| COc1cccc2c1C(=O)c1c(O)c3c(c(O)c1C2=O)C[C@@](O)(C(=O)CO)C[C@@H]3O[C@H]1C[C@H](N)[C@H](O)[C@H](C)O1 [adriamycin] | very sensitive | very sensitive | 3-5 fold | 3-5 fold |

— patent US6399298B1, “Ku70—related methods” (Sloan-Kettering Institute for Cancer Research, priority 1998, dated 2002)
